Assay results taken from ChEMBL document CHEMBL4364276, “Discovery of 4-phenyl-2H-benzo[b][1,4]oxazin-3(4H)-one derivatives as potent and orally active PI3K/mTOR dual inhibitors” (Eur J Med Chem, 2019).
pIC50: −log10 of the molar value.

Tests used:
[1] = Clearance in Sprague-Dawley rat at 1 mg/kg, iv measured upto 24 hrs by LC-MS/MS analysis; format: ADME, organism-based; conditions: in vivo
[2] = target: Serine/threonine-protein kinase 4 (Homo sapiens) (UniProt Q13043); experiment: Inhibition of human MST1 at 100 nM using KKSRGDYMTMQIG as substrate by [gamma-33P]-ATP assay
[3] = target: Ephrin type-A receptor 6 (Homo sapiens) (UniProt Q9UF33); experiment: Inhibition of human EPHA6 at 100 nM using poly[Glu:Tyr] (4:1) as substrate by [gamma-33P]-ATP assay
Sequence of Ephrin type-A receptor 6 (Homo sapiens) (Q9UF33 whole entry): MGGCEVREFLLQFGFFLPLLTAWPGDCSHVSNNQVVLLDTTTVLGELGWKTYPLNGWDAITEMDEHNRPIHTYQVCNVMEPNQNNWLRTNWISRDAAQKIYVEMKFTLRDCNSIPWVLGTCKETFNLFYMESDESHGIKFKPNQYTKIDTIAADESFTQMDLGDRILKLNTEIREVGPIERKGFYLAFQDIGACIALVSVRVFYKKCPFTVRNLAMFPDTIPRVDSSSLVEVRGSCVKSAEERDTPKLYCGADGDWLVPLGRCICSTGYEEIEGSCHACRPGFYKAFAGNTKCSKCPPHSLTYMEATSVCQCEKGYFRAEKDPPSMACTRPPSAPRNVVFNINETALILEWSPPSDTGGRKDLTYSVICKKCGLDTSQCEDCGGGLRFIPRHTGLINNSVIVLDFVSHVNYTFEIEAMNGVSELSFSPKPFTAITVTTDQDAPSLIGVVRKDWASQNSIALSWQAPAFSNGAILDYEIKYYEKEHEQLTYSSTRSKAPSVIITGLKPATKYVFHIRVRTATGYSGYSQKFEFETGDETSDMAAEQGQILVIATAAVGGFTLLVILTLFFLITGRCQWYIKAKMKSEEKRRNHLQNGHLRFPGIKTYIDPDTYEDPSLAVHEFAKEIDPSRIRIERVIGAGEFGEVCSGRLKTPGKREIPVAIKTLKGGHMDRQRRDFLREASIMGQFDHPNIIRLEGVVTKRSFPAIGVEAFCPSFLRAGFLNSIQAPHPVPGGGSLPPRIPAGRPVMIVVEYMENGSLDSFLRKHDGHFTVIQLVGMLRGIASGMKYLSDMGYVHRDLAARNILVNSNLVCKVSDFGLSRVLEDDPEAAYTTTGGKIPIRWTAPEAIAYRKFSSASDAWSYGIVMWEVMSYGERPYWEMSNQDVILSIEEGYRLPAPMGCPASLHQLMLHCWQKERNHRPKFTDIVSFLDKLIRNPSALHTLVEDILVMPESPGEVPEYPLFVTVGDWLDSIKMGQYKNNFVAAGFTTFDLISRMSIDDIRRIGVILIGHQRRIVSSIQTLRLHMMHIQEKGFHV

[4] = target: Mitogen-activated protein kinase 11 (Homo sapiens) (UniProt Q15759); experiment: Inhibition of human p38beta at 100 nM using MBP as substrate by [gamma-33P]-ATP assay
Sequence of Mitogen-activated protein kinase 11 (Homo sapiens) (Q15759 whole entry, the tested form may be a part): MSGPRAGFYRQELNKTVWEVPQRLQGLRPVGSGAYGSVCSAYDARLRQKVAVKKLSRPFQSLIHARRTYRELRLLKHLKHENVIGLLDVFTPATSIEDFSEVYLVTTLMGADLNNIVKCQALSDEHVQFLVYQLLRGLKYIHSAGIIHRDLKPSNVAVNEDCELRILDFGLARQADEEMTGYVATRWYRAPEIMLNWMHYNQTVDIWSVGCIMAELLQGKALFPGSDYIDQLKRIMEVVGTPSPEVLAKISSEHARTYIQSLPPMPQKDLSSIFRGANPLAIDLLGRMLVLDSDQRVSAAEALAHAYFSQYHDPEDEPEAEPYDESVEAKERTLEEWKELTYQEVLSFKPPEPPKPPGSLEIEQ

[5] = target: PI3-kinase p110-delta/p85-alpha (Homo sapiens, UniProt O00329); experiment: Inhibition of recombinant human full length N-terminal GST-tagged PI3Kdelta (1 to 1044 residues)/PIK3R1 (1 to 724 residues) expressed in baculovirus expression system using PIP2 as substrate incubated for 2 hrs by ADP-Glo assay
[6] = target: CDC7/DBF4 (Cell division cycle 7-related protein kinase/Activator of S phase kinase) (Homo sapiens) (UniProt Q9UBU7+O00311); experiment: Inhibition of human CDC7/DBF4 at 100 nM using KTFCGTPEYLAPEVRREPRILSEEEQEMFRDFDYIADWC as substrate by [gamma-33P]-ATP assay; format: protein-complex assay
[7] = target: ALK tyrosine kinase receptor (Homo sapiens) (UniProt Q9UM73); experiment: Inhibition of human ALK at 100 nM using poly[Glu:Tyr] (4:1) as substrate by [gamma-33P]-ATP assay
[8] = target: Dual specificity mitogen-activated protein kinase kinase 5 (Homo sapiens) (UniProt Q13163); experiment: Inhibition of human MEK5 at 100 nM using ERK5 as substrate by [gamma-33P]-ATP assay
[9] = target: RAF proto-oncogene serine/threonine-protein kinase (Homo sapiens) (UniProt P04049); experiment: Inhibition of human RAF1 at 100 nM using MEK1 as substrate by [gamma-33P]-ATP assay
[10] = target: Homeodomain-interacting protein kinase 4 (Homo sapiens) (UniProt Q8NE63); experiment: Inhibition of human HIPK4 at 100 nM using MBP as substrate by [gamma-33P]-ATP assay
Sequence of Homeodomain-interacting protein kinase 4 (Homo sapiens) (Q8NE63 whole entry): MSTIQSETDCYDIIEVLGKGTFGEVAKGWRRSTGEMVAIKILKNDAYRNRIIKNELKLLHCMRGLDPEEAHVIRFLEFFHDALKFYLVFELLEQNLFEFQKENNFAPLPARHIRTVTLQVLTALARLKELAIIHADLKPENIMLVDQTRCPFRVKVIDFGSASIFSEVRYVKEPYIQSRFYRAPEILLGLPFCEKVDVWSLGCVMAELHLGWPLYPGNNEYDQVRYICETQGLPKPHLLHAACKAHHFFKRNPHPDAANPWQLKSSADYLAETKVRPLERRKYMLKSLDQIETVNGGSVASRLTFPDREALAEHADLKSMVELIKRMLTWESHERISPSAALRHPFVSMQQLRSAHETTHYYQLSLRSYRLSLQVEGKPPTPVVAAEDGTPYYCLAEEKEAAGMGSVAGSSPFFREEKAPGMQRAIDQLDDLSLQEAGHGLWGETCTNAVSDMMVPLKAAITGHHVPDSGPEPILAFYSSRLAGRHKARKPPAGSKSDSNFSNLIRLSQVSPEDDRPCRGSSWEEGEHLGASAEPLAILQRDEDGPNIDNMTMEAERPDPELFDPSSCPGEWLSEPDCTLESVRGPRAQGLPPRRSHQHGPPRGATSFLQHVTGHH

[11] = target: Calcium/calmodulin-dependent protein kinase type 1D (Homo sapiens) (UniProt Q8IU85); experiment: Inhibition of human CAMK1D at 100 nM using KKALRRQETVDAL as substrate by [gamma-33P]-ATP assay
[12] = target: RAC-gamma serine/threonine-protein kinase (Homo sapiens) (UniProt Q9Y243); experiment: Inhibition of human AKT3 at 100 nM using KGSGSGRPRTSSFAEG as substrate by [gamma-33P]-ATP assay
Sequence of RAC-gamma serine/threonine-protein kinase (Homo sapiens) (Q9Y243 whole entry): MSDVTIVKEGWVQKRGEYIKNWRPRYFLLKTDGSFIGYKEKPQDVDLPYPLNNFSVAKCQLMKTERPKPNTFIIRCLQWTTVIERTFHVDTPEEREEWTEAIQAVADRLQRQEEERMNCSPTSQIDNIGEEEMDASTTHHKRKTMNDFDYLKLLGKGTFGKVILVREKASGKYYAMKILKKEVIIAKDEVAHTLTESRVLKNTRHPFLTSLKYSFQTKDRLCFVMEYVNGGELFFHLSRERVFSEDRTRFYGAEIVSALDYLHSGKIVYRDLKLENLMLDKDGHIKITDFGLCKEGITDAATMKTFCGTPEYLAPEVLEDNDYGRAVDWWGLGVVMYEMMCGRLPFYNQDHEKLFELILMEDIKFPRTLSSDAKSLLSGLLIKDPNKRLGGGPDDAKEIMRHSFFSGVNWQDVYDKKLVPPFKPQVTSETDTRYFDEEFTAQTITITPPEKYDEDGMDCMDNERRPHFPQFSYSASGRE

[13] = target: Glycogen synthase kinase-3 alpha (Homo sapiens) (UniProt P49840); experiment: Inhibition of human GSK3A at 100 nM using YRRAAVPPSPSLSRHSSPHQ(pS)EDEEE as substrate by [gamma-33P]-ATP assay
[14] = target: Receptor tyrosine-protein kinase erbB-2 (Homo sapiens) (UniProt P04626); experiment: Inhibition of human ERBB2 at 100 nM using poly[Glu:Tyr] (4:1) as substrate by [gamma-33P]-ATP assay
[15] = target: Serine/threonine-protein kinase MAK (Homo sapiens) (UniProt P20794); experiment: Inhibition of human MAK at 100 nM using MBP as substrate by [gamma-33P]-ATP assay
[16] = target: Mitogen-activated protein kinase 8 (Homo sapiens) (UniProt P45983); experiment: Inhibition of human JNK1 at 100 nM using ATF2 as substrate by [gamma-33P]-ATP assay
[17] = target: Epithelial discoidin domain-containing receptor 1 (Homo sapiens) (UniProt Q08345); experiment: Inhibition of human DDR1 at 100 nM using KKSRGDYMTMQIG as substrate by [gamma-33P]-ATP assay
Sequence of Epithelial discoidin domain-containing receptor 1 (Homo sapiens) (Q08345 whole entry, the tested form may be a part): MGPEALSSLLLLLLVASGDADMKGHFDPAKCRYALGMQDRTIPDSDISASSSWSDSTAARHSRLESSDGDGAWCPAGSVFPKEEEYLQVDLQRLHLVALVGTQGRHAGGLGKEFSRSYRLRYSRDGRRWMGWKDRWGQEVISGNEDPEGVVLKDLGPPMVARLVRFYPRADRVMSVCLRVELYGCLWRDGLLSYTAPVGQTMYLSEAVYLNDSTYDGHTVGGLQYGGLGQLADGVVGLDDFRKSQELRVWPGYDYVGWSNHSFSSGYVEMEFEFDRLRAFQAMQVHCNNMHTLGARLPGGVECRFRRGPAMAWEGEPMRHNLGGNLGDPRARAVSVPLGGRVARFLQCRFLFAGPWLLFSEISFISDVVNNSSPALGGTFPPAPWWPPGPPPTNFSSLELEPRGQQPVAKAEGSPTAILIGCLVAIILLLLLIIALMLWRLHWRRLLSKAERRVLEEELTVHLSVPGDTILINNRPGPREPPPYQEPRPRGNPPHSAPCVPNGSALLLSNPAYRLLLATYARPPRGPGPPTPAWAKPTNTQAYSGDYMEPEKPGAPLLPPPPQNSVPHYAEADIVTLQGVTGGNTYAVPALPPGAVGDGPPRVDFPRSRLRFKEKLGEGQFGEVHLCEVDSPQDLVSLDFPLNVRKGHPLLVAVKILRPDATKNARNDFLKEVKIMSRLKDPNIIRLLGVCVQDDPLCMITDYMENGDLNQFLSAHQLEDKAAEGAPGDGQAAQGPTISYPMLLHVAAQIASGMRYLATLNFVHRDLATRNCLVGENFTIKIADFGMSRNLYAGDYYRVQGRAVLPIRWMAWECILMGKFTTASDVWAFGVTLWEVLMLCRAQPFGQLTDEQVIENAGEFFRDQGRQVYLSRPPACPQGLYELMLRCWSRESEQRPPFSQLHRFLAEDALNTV

[18] = target: Protein kinase C theta type (Homo sapiens) (UniProt Q04759); experiment: Inhibition of human PKCtheta at 100 nM using Histone H1 as substrate by [gamma-33P]-ATP assay
Sequence of Protein kinase C theta type (Homo sapiens) (Q04759 whole entry, looked up): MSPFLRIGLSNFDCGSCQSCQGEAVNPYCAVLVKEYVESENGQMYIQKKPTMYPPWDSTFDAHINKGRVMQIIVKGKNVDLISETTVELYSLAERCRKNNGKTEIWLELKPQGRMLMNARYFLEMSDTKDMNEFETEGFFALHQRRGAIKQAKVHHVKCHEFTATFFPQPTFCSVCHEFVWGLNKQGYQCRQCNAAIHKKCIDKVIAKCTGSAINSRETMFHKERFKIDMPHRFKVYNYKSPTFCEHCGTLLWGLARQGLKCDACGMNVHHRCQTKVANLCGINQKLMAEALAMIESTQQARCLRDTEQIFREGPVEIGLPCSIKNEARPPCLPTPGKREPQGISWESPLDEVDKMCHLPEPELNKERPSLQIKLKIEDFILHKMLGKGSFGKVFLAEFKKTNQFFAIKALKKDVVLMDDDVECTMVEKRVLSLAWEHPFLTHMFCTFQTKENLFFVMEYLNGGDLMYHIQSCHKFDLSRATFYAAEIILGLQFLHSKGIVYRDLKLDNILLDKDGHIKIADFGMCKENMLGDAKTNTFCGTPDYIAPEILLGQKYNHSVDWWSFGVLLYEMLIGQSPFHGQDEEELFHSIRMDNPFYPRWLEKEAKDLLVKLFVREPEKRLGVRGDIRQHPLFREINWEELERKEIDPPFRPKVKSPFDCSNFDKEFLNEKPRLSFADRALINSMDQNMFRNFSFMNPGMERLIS

A549 = experiment: Antitumor activity against human A549 cells xenografted in BALB/c nude mouse assessed as tumor growth inhibition at 40 mg/kg, ig administered for 30 days measured every 3 days during compound dosing relative to control; format: functional; conditions: A549, po, read-out: TGI
[19] = target: CDK2/Cyclin O (Homo sapiens) (UniProt P24941+P22674); experiment: Inhibition of human CDK2/cyclin-O at 100 nM using histone H1 as substrate by [gamma-33P]-ATP assay; format: protein-complex assay
HepG2 = experiment: cells; conditions: Homo sapiens, HepG2, 72 h
[20] = target: Epidermal growth factor receptor (Homo sapiens) (UniProt P00533); experiment: Inhibition of human EGFR at 100 nM using poly[Glu:Tyr] (4:1) as substrate by [gamma-33P]-ATP assay
[21] = target: DNA-dependent protein kinase catalytic subunit (Homo sapiens) (UniProt P78527); experiment: Inhibition of human DNAPK at 100 nM using EPPLSQEAFADLWKK as substrate by [gamma-33P]-ATP assay
[22] = target: Mitogen-activated protein kinase kinase kinase 20 (Homo sapiens) (UniProt Q9NYL2); experiment: Inhibition of human ZAK at 100 nM using MBP as substrate by [gamma-33P]-ATP assay
Sequence of Mitogen-activated protein kinase kinase kinase 20 (Homo sapiens) (Q9NYL2 2-800 limits assumed): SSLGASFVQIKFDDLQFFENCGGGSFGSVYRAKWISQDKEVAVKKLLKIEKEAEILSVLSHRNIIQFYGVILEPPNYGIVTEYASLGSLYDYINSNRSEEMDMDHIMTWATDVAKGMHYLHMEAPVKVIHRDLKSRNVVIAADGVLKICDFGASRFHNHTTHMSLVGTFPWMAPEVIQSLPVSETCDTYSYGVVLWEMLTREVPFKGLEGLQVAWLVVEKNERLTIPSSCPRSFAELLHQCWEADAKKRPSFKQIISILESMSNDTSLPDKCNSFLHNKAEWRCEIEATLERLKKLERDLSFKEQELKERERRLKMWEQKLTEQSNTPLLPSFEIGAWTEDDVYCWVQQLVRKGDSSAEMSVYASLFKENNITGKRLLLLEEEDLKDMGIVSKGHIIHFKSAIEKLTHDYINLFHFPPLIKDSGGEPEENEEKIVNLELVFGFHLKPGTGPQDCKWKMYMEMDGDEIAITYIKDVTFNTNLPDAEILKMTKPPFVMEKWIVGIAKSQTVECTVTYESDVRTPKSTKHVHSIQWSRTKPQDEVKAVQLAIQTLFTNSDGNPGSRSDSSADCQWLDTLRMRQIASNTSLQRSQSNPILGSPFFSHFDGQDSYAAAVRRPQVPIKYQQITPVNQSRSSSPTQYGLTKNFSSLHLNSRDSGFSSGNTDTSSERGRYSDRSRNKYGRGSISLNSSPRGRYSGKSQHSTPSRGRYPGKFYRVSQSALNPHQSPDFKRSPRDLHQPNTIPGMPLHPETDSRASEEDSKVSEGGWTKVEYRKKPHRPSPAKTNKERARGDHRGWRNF

[23] = Toxicity in BALB/c mouse xenografted with human A549 cells assessed as reduction in body weight at 20 to 40 mg/kg, ig administered for 30 days; format: organism-based; conditions: in vivo, po, 720 h
[24] = target: Serine/threonine-protein kinase Nek11 (Homo sapiens) (UniProt Q8NG66); experiment: Inhibition of human NEK11 at 100 nM using MBP as substrate by [gamma-33P]-ATP assay
[25] = target: Serine/threonine-protein kinase SBK1 (Homo sapiens) (UniProt Q52WX2); experiment: Inhibition of human SBK1 at 100 nM using LCGRTGRRNSI as substrate by [gamma-33P]-ATP assay
[26] = target: SNF-related serine/threonine-protein kinase (Homo sapiens) (UniProt Q9NRH2); experiment: Inhibition of human SNRK at 100 nM using MBP as substrate by [gamma-33P]-ATP assay
[27] = target: Ephrin type-A receptor 8 (Homo sapiens) (UniProt P29322); experiment: Inhibition of human EPHA8 at 100 nM using poly[Glu:Tyr] (4:1) as substrate by [gamma-33P]-ATP assay
[28] = target: Membrane-associated tyrosine- and threonine-specific cdc2-inhibitory kinase (Homo sapiens) (UniProt Q99640); experiment: Inhibition of human PKMYT1 at 100 nM using MBP as substrate by [gamma-33P]-ATP assay

For `COc1ccc(N2C(=O)COc3ccc(-c4cnc(OC)c(NS(=O)(=O)c5ccc(F)cc5)c4)cc32)cc1`, the clearance [1] was 8.56 mL/min/kg, the inhibition [2] was 11.4% and the inhibition [3] was -9.63%. The inhibition [4] was 9.33%, the pIC50 [5] was 8.04 and the inhibition [6] was 8.12%. The inhibition [7] was 2.94%, the inhibition [8] was -3.16% and the inhibition [9] was -0.03%. The inhibition [10] was 5.1%, the inhibition [11] was 0% and the inhibition [12] was 5.88%. It also gave an inhibition [13] of -8.76%, an inhibition [14] of 3.37% and an inhibition [15] of 16.2%. The inhibition [16] was -0.95%, the inhibition [17] was 2.59% and the inhibition [18] was 0.73%. For the same compound, the inhibition in vivo at 40 mg/kg (A549) was 70.2%, the inhibition [19] was 0.23% and the pIC50 (HepG2) was 4.88. The inhibition [20] was 8.4%, the inhibition [21] was 74.4% and the inhibition [22] was -6.81%. For the same compound, the Activity [23] was “Non-Toxic”, the inhibition [24] was 17.5% and the inhibition [25] was 7.68%. It also gave an inhibition [26] of 17.7%, an inhibition [27] of -2.71% and an inhibition [28] of 14%.
